Paper PMC3901259, “Characterisation of the Metabolites of 1,8-Cineole Transferred into Human Milk: Concentrations and Ratio of Enantiomers” (Metabolites, 2013)

Assays:
[1] = Quantification of 1,8-cineole metabolites in human milk (SAFE, GC-MS, internal standard and matrix calibration) after oral intake of 100 mg 1,8-cineole; format: in vivo; settings: for Absolute concentration in human milk: single determination
Description: Human milk samples were provided voluntarily by breastfeeding mothers after intake of the non-prescription pharmaceutical Soledum® (Klosterfrau Healthcare Group, Cologne, Germany). Before the beginning of the study, the participants were informed verbally, as well as in written form, about the study procedure and purpose and they were told that withdrawing from the study was possible at any time without giving any reason. All volunteers gave written consent to the analysis of their milk samples and anonymous publication of the resulting data. The Ethical Committee of the Medical Faculty, University Erlangen-Nuremberg, approved the experimental procedures. Each participant was handed a copy of the Soldeum® package instructions and was advised to read it before capsule intake. They were also advised to withdraw from the study if any negative reactions such as medication allergies or interactions with other drugs they were taking were to be expected. Additionally, the volunteers were informed verbally about potential effects of the pharmaceutical preparation on breastfeeding, i.e. the risk of an altered milk flavour and rejection of the milk by the nursling. Accordingly, if this would happen, the mothers were recommended to feed their babies with stored human milk or formula milk products.
The milk donors were between the ages of 29 and 40 years (mean 34 years). During their participation in the study, their breast milk production had to be normal and in excess of their infants' needs, with no breast infections and no overall medical complaints present. Five participants were primiparous, three were multiparous and the breast milk samples were from 19 weeks to 19 months postpartum. For sampling, either electrical or mechanical breast pumps or manual expression techniques were applied, resulting in sample volumes between 10 and 100 mL. The samples were immediately subjected to sample preparation after a maximum storage time of five hours at 7 °C or were stored in a freezer at −20 °C for up to five days.
The participating volunteers were asked to ingest one Soledum® capsule, containing 100 mg 1,8-cineole, and to wait until they themselves or another person began to notice the eucalyptus-like odour on their breath. […] The donors were instructed to keep notes on the dates of capsule intake, first eucalyptus-like odour on their breath and exact sampling time. Unfortunately it was difficult for some mothers to detect the smell on their breath so they expressed the samples after some time without having noticed the smell, or reported having been unsure about the smell. […] Some of the donors repeated the whole experiment and some expressed more than one sample after the capsule intake, resulting in 14 samples in total, from 8 different mothers.
Extracts containing the volatile fraction of the human milk samples were prepared by Solvent Assisted Flavour Evaporation (SAFE) after addition of deuterated 1,8-cineole as internal standard (solution in dichloromethane), followed by 10 min of stirring, then another addition of dichloromethane (50% v/v), and 30 min of stirring. The resulting stable phase was distilled in the SAFE-apparatus at 50 °C and approximately 1x10^−4 mbar. The volatile fraction of the samples was frozen with liquid nitrogen. After thawing, it consisted of two phases, formed by the dichloromethane and by the water out of the milk. The water phase was extracted three times with dichloromethane, and the solvent phases were combined and dried over anhydrous Na2SO4. Finally the sample extracts were concentrated by microdistillation according to Bemelmans at 50 °C to a total volume of 50 to 200 μL.
For GC-MS analyses, an Agilent MSD quadrupole system (GC 7890A with MSD 5975C, Agilent Technologies, Waldbronn, Germany) coupled with a CIS 4C (cooled injection system) and an MPS 2 auto-sampler (Gerstel GmbH & Co. KG, Duisburg, Germany) were used. […]

[2] = parameters: method as in PMID 20425757; settings: one volunteer, sage tea, overall intake 1.02 mg 1,8-cineole; cited from earlier work
[3] = Determination of the ratios of enantiomers of chiral metabolites in human milk on chiral GC capillaries; format: in vivo
Description: The separation of the chiral metabolites of 1,8-cineole was successfully achieved using different β- or γ-cyclodextrin-based stationary phases (Rt-bDEXsa, Rt-bDEXse, Rt-bDEXsm and Rt-yDEXsa) for gas chromatographic analysis. Table S1, in the supplementary material, lists the usable separation phases and the respective retention indices (determined according to van den Dool and Kratz) for each pair of enantiomers. It was therefore decided to use the following capillaries for the analysis of the human milk samples: Rt-bDEXsm for separation of 2,3-dehydro-, α2,3-epoxy-, 2-oxo-, 3-oxo- and 9-hydroxy-1,8-cineole, and Rt-yDEXsa for separation of α2-hydroxy-, α3-hydroxy- and β2-hydroxy-1,8-cineole, under the GC conditions described in the experimental section.
For GC-MS analyses, an Agilent MSD quadrupole system (GC 7890A with MSD 5975C, Agilent Technologies, Waldbronn, Germany) coupled with a CIS 4C (cooled injection system) and an MPS 2 auto-sampler (Gerstel GmbH & Co. KG, Duisburg, Germany) were used. Data collection and analysis were performed with the MSD ChemStation E.02.00.493 (Agilent Technologies, Inc.) software. Quantification experiments were carried out on DB-FFAP and DB-5 capillaries (30 m length, 0.25 mm inner diameter, 0.25 µm film thickness, Agilent J&W GC Columns, USA), and for monitoring of the ratio of enantiomers the chiral capillaries Rt-bDEXsa, Rt-bDEXse, Rt-bDEXsm and Rt-yDEXsa (30 m length, 0.32 mm inner diameter, 0.25 µm film thickness, Restek GmbH, Bad Homburg, Germany) were utilised. Pre-columns of uncoated, deactivated fused silica (0.53 mm inner diameter, 0.5 to 3.5 m length) were used to ensure that no potentially present low-volatile residues could contaminate the analytical capillaries. The temperature programme of the column oven was as follows: 40 °C for 2 min, 4 °C/min up to 170 °C, 40 °C/min up to 230 °C (Rt-DEX capillaries), 240 °C (DB-FFAP) and 250 °C (DB-5), respectively, and hold time at end temperature of 5 to 10 min. As carrier gas, helium was used at a flow rate of 1.3 mL/min (velocity 41.1 cm/s). Injection of 1 or 2 µL was performed by the auto-sampler.
For the separation of the pairs of enantiomers of the chiral metabolites of 1,8-cineole, four different capillaries (Rt-bDEXsa, Rt-bDEXse, Rt-bDEXsm, and Rt-yDEXsa) were evaluated for optimisation of the peak-to-peak resolution of the enantiomers by injecting a mixture of all the metabolites in a dichloromethane solution and by varying the heating rate. Besides the separation of each pair of enantiomers from each other, it was also important to confirm that no other metabolite coeluted with any one of the enantiomers, because the milk samples would most probably contain all metabolites. Moreover, the separation conditions for the mixture of reference substances were also tested on some human milk sample extracts and modified accordingly, where necessary, to avoid coelution with interfering matrix compounds.
For calculation of the ratio of enantiomers (that is, the relative abundance of each enantiomer to the not separated mixture of enantiomers), the peak area of each enantiomer was divided by the sum of the peak areas of both enantiomers and multiplied by 100. With the known concentrations of the chiral metabolites in each milk sample, the absolute concentration of each single enantiomer was also calculated by multiplying the concentration with the respective percentage.

[4] = sample A-1b (odour yes), oral 100 mg 1,8-cineole, values given with (<x) are approximations
[5] = sample B-1 (odour yes), oral 100 mg 1,8-cineole, values given with (<x) are approximations
[6] = sample B-2b (odour yes), oral 100 mg 1,8-cineole, values given with (<x) are approximations
[7] = sample B-2c (no odour), oral 100 mg 1,8-cineole
[8] = sample D-2 (odour yes), oral 100 mg 1,8-cineole, values given with (<x) are approximations
[9] = sample E-2 (odour yes), oral 100 mg 1,8-cineole, values given with (<x) are approximations
[10] = sample G (odour yes), oral 100 mg 1,8-cineole, values given with (<x) are approximations
[11] = sample H (odour yes), oral 100 mg 1,8-cineole, values given with (<x) are approximations
[12] = sample C (no odour; very weak odour not caused by 1,8-cineole), oral 100 mg 1,8-cineole, values given with (<x) are approximations
[13] = sample D-1 (no odour), oral 100 mg 1,8-cineole, values given with (<x) are approximations
[14] = sample F (no odour), parent ingested two capsules, values given with (<x) are approximations

| Compound | Absolute concentration in human milk [1, 4] | Absolute concentration in human milk [1, 5] | Absolute concentration in human milk [1, 6] | Absolute concentration in human milk [1, 7] | Absolute concentration in human milk [1, 8] | Absolute concentration in human milk [1, 9] | Estimated maximum level in human milk (concentration calculated with the last calibration point, in parentheses) ([1]; sample G (odour yes)) | Absolute concentration in human milk [1, 10] | Absolute concentration in human milk [1, 11] | Estimated maximum level in human milk (concentration calculated with the last calibration point, in parentheses) ([1]; sample C (no odour)) | Absolute concentration in human milk [1, 12] | Absolute concentration in human milk [1, 13] | Absolute concentration in human milk [1, 14] | Estimated maximum level in human milk (concentration calculated with the last calibration point, in parentheses) ([1]; sample B-2b (odour yes)) | Estimated maximum level in human milk (concentration calculated with the last calibration point, in parentheses) ([1]; sample D-1 (no odour)) | Estimated maximum level in human milk (concentration calculated with the last calibration point, in parentheses) ([1]; sample D-2 (odour yes)) | Concentration in plasma [2] | further results |
| --- | --- | --- | --- | --- | --- | --- | --- | --- | --- | --- | --- | --- | --- | --- | --- | --- | --- | --- |
| CC12CCC(O)(CC1)C(C)(C)O2 [4-hydroxy-1,8-cineole] | 5.96 µg/kg | 6.35 µg/kg | 5.62 µg/kg | 2.32 µg/kg | 7.13 µg/kg | 8.92 µg/kg |  | 3.39 µg/kg | 5.66 µg/kg |  |  | 2.24 µg/kg | 3.62 µg/kg |  |  |  |  |  |
| CC12CCC(C(=O)C1)C(C)(C)O2 (stereo not shown) [3-oxo-1,8-cineole] | 1.80 µg/kg | 3.32 µg/kg | 1.47 µg/kg | 0.68 µg/kg | 2.12 µg/kg | 2.41 µg/kg | < 4.02 µg/kg | 3.38 µg/kg | 3.85 µg/kg | < 1.10 µg/kg | 0.14 µg/kg | 0.77 µg/kg | 0.07 µg/kg | < 2.37 µg/kg | < 1.22 µg/kg | < 2.20 µg/kg |  | Estimated maximum level in human milk (concentration calculated with the last calibration point, in parentheses) ([1]; sample A-1a (no odour)): < 1.57 µg/kg; Absolute concentration in human milk ([1]; sample A-1a (no odour), oral 100 mg 1,8-cineole, values given with (<x) lie beyond calibration range, approximation): 0.01 µg/kg; Estimated maximum level in human milk (concentration calculated with the last calibration point, in parentheses) ([1]; sample F (no odour), two capsules): < 3.00 µg/kg; Enantiomeric ratio in human milk [3]: nearly enantiomerically pure; Percentage E1, range as described for boxplot ([3]; human milk samples, Figure 5): under 10% |

The next lines start with results.

| Absolute concentration in human milk [1, 4] | Absolute concentration in human milk [1, 5] | Absolute concentration in human milk [1, 6] | Absolute concentration in human milk [1, 7] | Absolute concentration in human milk [1, 8] | Absolute concentration in human milk [1, 9] | Estimated maximum level in human milk (concentration calculated with the last calibration point, in parentheses) ([1]; sample G (odour yes)) | Absolute concentration in human milk [1, 10] | Absolute concentration in human milk [1, 11] | Estimated maximum level in human milk (concentration calculated with the last calibration point, in parentheses) ([1]; sample C (no odour)) | Absolute concentration in human milk [1, 12] | Absolute concentration in human milk [1, 13] | Absolute concentration in human milk [1, 14] | Estimated maximum level in human milk (concentration calculated with the last calibration point, in parentheses) ([1]; sample B-2b (odour yes)) | Estimated maximum level in human milk (concentration calculated with the last calibration point, in parentheses) ([1]; sample D-1 (no odour)) | Estimated maximum level in human milk (concentration calculated with the last calibration point, in parentheses) ([1]; sample D-2 (odour yes)) | Compound | Concentration in plasma [2] | further results |
| --- | --- | --- | --- | --- | --- | --- | --- | --- | --- | --- | --- | --- | --- | --- | --- | --- | --- | --- |
| 0.56 µg/kg | 1.14 µg/kg | 4.42 µg/kg | 0.18 µg/kg | 0.62 µg/kg | 5.19 µg/kg | < 1.06 µg/kg | 0.84 µg/kg | 1.87 µg/kg |  |  |  |  |  |  |  | CC1(C)OC2(CO)CCC1CC2 [7-hydroxy-1,8-cineole] | below the limit of quantitation | Absolute concentration in human milk ([1]; sample B-2a (no odour), oral 100 mg 1,8-cineole): 0.21 µg/kg |
| 6.00 µg/kg | 6.72 µg/kg | 5.82 µg/kg | 1.71 µg/kg | 7.35 µg/kg | 11.44 µg/kg |  | 3.80 µg/kg | 7.90 µg/kg | < 0.96 µg/kg | 0.33 µg/kg | 1.42 µg/kg |  |  |  |  | CC1(C)OC2(C)CCC1CC2O (stereo not drawn) [b2-hydroxy-1,8-cineole, β2-hydroxy-1,8-cineole] |  |  |
| 0.77 µg/kg | 1.06 µg/kg | 0.54 µg/kg | 0.05 µg/kg | 0.41 µg/kg | 0.96 µg/kg | < 3.51 µg/kg | 0.72 µg/kg | 1.53 µg/kg | < 0.96 µg/kg | 0.05 µg/kg | 0.03 µg/kg |  | < 2.07 µg/kg | < 1.06 µg/kg | < 1.92 µg/kg | CC12CCC(C(O)C1)C(C)(C)O2 (stereo not drawn) [a3-hydroxy-1,8-cineole, α3-Hydroxy-1,8-cineole] | below the limit of quantitation | Estimated maximum level in human milk (concentration calculated with the last calibration point, in parentheses) ([1]; sample A-1b (odour yes)): < 1.14 µg/kg; Estimated maximum level in human milk (concentration calculated with the last calibration point, in parentheses) ([1]; sample B-1 (odour yes)): < 1.65 µg/kg; Estimated maximum level in human milk (concentration calculated with the last calibration point, in parentheses) ([1]; sample E-2 (odour yes)): < 1.78 µg/kg; Estimated maximum level in human milk (concentration calculated with the last calibration point, in parentheses) ([1]; sample H (odour yes)): < 1.96 µg/kg |
